Reference: patent US10441663B2, “Methods for treating cancer” (Bicycle Therapeutics Limited, priority 2016, dated 2019)
*1 amine or outer side, *2 acyl side, *3 side chain or, on linkers, in order; H or OH if unused. Where a SMILES comes first, the peptide text is derived from it. Bridges are numbered along the chain shown (N, C = ends). [ ]: non-standard residue; d: D form. The star is where a group is joined. X1 = COc1cc2cc(c1Cl)N(C)C(=O)C[C@H](OC(=O)[C@H](C)N(C)C(=O)CCSSC(C)CCC(=O)*)[C@]1(C)O[C@H]1[C@H](C)[C@@H]1C[C@@](O)(NC(=O)O1)[C@H](OC)/C=C/C=C(\C)C2; 1Nal = N[C@@H](Cc1cccc2ccccc12)C(=O)O; TBMB = c1c(C[*:1])cc(C[*:3])cc1C[*:2]; Tle = CC(C)(C)[C@H](N)C(=O)O; βAla = NCCC(=O)O; Sar = CNCC(=O)O

Tested on: NCI-H292 xenograft
Test: In vivo efficacy of BT1718 in NCI-H292 xenograft
Set-up: species or system Mus Musculus; key to Best response at 10 mg/kg: CR complete response; PR partial response
Procedure: The objective of this study was to evaluate the in vivo anti-tumor efficacy of BT1718in treatment of HT1080, NCI-H292, NCI-H1975, MDA-MB-231, HCC1806, RPMI2650, HCT-15, HT-29 and SNU-16 xenograft in BALB/c nude mice.
The HT1080, NCI-H292, NCI-H1975, MDA-MB-231, HCC1806, RPMI2650, HCT-15, HT-29 and SNU-16 tumor cells were maintained in vitro as a monolayer culture in medium supplemented with 10% heat inactivated fetal bovine serum at 37° C. in an […]. The tumor cells will be routinely subcultured twice weekly by trypsin-EDTA treatment. The cells growing in an exponential growth phase will be harvested and counted for tumor inoculation.
Mouse was inoculated subcutaneously at the right flank with tumor cells for tumor development. The animals were randomized and treatment was started when the average tumor reaches certain volume for the efficacy study, the inoculating cell amounts and starting tumor size were shown as below in Table 9. The test article administration and the animal numbers in each group were shown in the experimental design in Table 10.
All the procedures related to animal handling, care and the treatment in the study were performed according to the guidelines of the Association for Assessment and Accreditation of Laboratory Animal Care (AAALAC). At the time of routine monitoring, the animals were daily checked for any effects of tumor growth and treatments on normal behavior such as mobility, food and water consumption (by looking only), body weight gain/loss (body weights were measured every day), eye/hair matting and any other abnormal effect as stated in the protocol. Death and observed clinical signs were recorded on the basis of the numbers of animals within each subset.
The major endpoint was to see if the tumor growth could be delayed or mice could be cured. Tumor size was measured three times weekly in two dimensions using a caliper, and the volume was expressed in mm^3 using the formula: V=0.5 a×b^2 where a and b are the long and short diameters of the tumor, respectively. The tumor size was then used for calculations of T/C value. The T/C value (in percent) is an indication of antitumor effectiveness; T and C are the mean volumes of the treated and control groups, respectively, on a given day.
TGI was calculated for each group using the formula: TGI (%)=[1−(Ti−T0)/(Vi−V0)]×100; Ti is the average tumor volume of a treatment group on a given day, T0 is the average tumor volume of the treatment group on the day of treatment start, Vi is the average tumor volume of the vehicle control group on the same day with Ti, and V0 is the average tumor volume of the vehicle group on the day of treatment start.
Summary statistics, including mean and the standard error of the mean (SEM), are provided for the tumor volume of each group at each time point.
Statistical analysis of difference in tumor volume among the groups was conducted on the data obtained at the best therapeutic time point after the final dose.
A one-way ANOVA was performed to compare tumor volume among groups, and when a significant F-statistics (a ratio of treatment variance to the error variance) was obtained, comparisons between groups were carried out with Games-Howell test. All data were analyzed using Prism. P<0.05 was considered to be statistically significant.

COc1cc2cc(c1Cl)N(C)C(=O)C[C@H](OC(=O)[C@H](C)N(C)C(=O)CCSSC(C)CCC(=O)NCCC(=O)N(C)CC(=O)N(C)CC(=O)N(C)CC(=O)N(C)CC(=O)N(C)CC(=O)N(C)CC(=O)N(C)CC(=O)N(C)CC(=O)N(C)CC(=O)N(C)CC(=O)N[C@@H](C)C(=O)N[C@H]1CSCc3cc4cc(c3)CSC[C@H](NC(=O)[C@@H](C)NC(=O)[C@H](Cc3cccc5ccccc35)NC(=O)[C@H](CCC(=O)O)NC(=O)[C@H](CC(N)=O)NC(=O)[C@@H](C)NC1=O)C(=O)N[C@@H](CCC(=O)O)C(=O)N[C@@H](CC(=O)O)C(=O)N[C@@H](Cc1ccccc1)C(=O)N[C@@H](Cc1ccc(O)cc1)C(=O)N[C@@H](CC(=O)O)C(=O)N[C@@H](C(C)(C)C)C(=O)N[C@H](C(N)=O)CSC4)[C@]1(C)O[C@H]1[C@H](C)[C@@H]1C[C@@](O)(NC(=O)O1)[C@H](OC)/C=C/C=C(\C)C2 (stereo partly drawn) [BT1718] ({X1-βAla}-[Sar][Sar][Sar][Sar][Sar][Sar][Sar][Sar][Sar][Sar]AC[dA]NE[1Nal][dA]CEDFYD[Tle]C-NH2; linker 12-18-25 via TBMB (inferred))
tumors that failed to respond on resumed treatment (10 mg/kg biw re-treatment): 1/3
tumors with lack of clear tumor growth on re-treatment (10 mg/kg biw re-treatment): 2/3
Body Weight (1 mpk biw, day 0): 22.8 ± 0.7 g
Tumor Volume (1 mpk biw, day 0): 153 ± 9 mm^3
Body Weight (1 mpk biw, day 2): 22.9 ± 0.3 g
Tumor Volume (1 mpk biw, day 2): 215 ± 25 mm^3
Body Weight (1 mpk biw, day 4): 23.4 ± 0.5 g
Tumor Volume (1 mpk biw, day 4): 326 ± 49 mm^3
Body Weight (1 mpk biw, day 7): 23.6 ± 0.6 g
Tumor Volume (1 mpk biw, day 7): 514 ± 54 mm^3
Body Weight (1 mpk biw, day 9): 23.7 ± 0.7 g
Tumor Volume (1 mpk biw, day 9): 669 ± 53 mm^3
Body Weight (1 mpk biw, day 11): 23.4 ± 0.7 g
Tumor Volume (1 mpk biw, day 11): 978 ± 97 mm^3
Body Weight (1 mpk biw, day 14): 23.5 ± 1.0 g
TGI (%) (1 mpk biw, day 14): 20.7%
Tumor Volume (1 mpk biw, day 14): 1174 ± 98 mm^3
Tumor Volume(mm^3) (1 mpk biw, day 14): 1174 ± 98 mm^3
Body Weight (3 mpk biw, day 0): 22.7 ± 0.5 g
Tumor Volume (3 mpk biw, day 0): 151 ± 15 mm^3
Body Weight (3 mpk biw, day 2): 23.5 ± 0.4 g
Tumor Volume (3 mpk biw, day 2): 226 ± 22 mm^3
Body Weight (3 mpk biw, day 4): 23.2 ± 0.7 g
Tumor Volume (3 mpk biw, day 4): 334 ± 65 mm^3
Body Weight (3 mpk biw, day 7): 23.4 ± 0.8 g
Tumor Volume (3 mpk biw, day 7): 443 ± 70 mm^3
Body Weight (3 mpk biw, day 9): 22.9 ± 0.9 g
Tumor Volume (3 mpk biw, day 9): 591 ± 90 mm^3
Body Weight (3 mpk biw, day 11): 22.6 ± 1.0 g
Tumor Volume (3 mpk biw, day 11): 781 ± 178 mm^3
Body Weight (3 mpk biw, day 14): 22.0 ± 1.2 g
TGI (%) (3 mpk biw, day 14): 40.3%
Tumor Volume (3 mpk biw, day 14): 920 ± 258 mm^3
Tumor Volume(mm^3) (3 mpk biw, day 14): 920 ± 258 mm^3
Body Weight (10 mpk biw, day 0): 22.8 ± 0.4 g
Tumor Volume (10 mpk biw, day 0): 153 ± 6 mm^3
Body Weight (10 mpk biw, day 2): 22.1 ± 0.3 g
Tumor Volume (10 mpk biw, day 2): 152 ± 8 mm^3
Body Weight (10 mpk biw, day 4): 21.7 ± 0.3 g
Tumor Volume (10 mpk biw, day 4): 151 ± 32 mm^3
Body Weight (10 mpk biw, day 7): 22.4 ± 0.3 g
Tumor Volume (10 mpk biw, day 7): 159 ± 49 mm^3
Body Weight (10 mpk biw, day 9): 21.8 ± 0.2 g
Tumor Volume (10 mpk biw, day 9): 158 ± 49 mm^3
Body Weight (10 mpk biw, day 11): 21.8 ± 0.2 g
Tumor Volume (10 mpk biw, day 11): 143 ± 52 mm^3
Body Weight (10 mpk biw, day 14): 22.5 ± 0.4 g
TGI (%) (10 mpk biw, day 14): 101.6%
Tumor Volume (10 mpk biw, day 14): 133 ± 44 mm^3
Tumor Volume(mm^3) (10 mpk biw, day 14): 133 ± 44 mm^3
Best response at 10 mg/kg (NCI-H292, 10 mg/kg): CR
Minimally Effective Dose IV BIW (NCI-H292, dose leading to tumor-stasis): <10 mg/kg
dosing suspension until re-growth to 150 mm3 (after 10 mg/kg biw): 2-3 weeks
tumor volume after regression (after 4 weeks 10 mg/kg biw): below 50 mm3
